Assay results published in patent publication US20250145665A1, “MACROCYCLIC PEPTIDES USEFUL AS MODULATORS OF TNF ALPHA” (Bristol-Myers Squibb Company, priority 2023, published 2025).
Read-outs that look alike come from different tables or passages of the source. Starred links: 1 amine or outer side, 2 acyl side, 3 side chain; linkers in the order of their positions; H or OH if unused. Positions of bridges follow the written chain, without caps; N, C: chain ends. Non-standard residues stand in square brackets, D forms with d. Residues, ends and D or L forms follow the SMILES beside them. *: point of attachment. Bip(4'-NHCO-C6H4-3-CH2COOH) = N[C@@H](Cc1ccc(-c2ccc(NC(=O)c3cccc(CC(=O)O)c3)cc2)cc1)C(=O)O; dArg(Nω-CH2C6H4-3-CH2Gua) = N=C(N)NCc1cccc(CNC(=N)NCCC[C@@H](N)C(=O)O)c1; dArg(ω-(2S)-2,3-diOHpropyl) = N=C(NCCC[C@@H](N)C(=O)O)NC[C@H](O)CO; Bip(4'-NH) = O=C([C@H](Cc1ccc(-c2ccc(N[*:3])cc2)cc1)N[*:1])[*:2]; dArg(ω-Bn(3-CH2OH)) = N=C(NCCC[C@@H](N)C(=O)O)NCc1cccc(CO)c1; Indazole3carbonyl(1-CH2COOH) = O=C(O)Cn1nc(C(=O)*)c2ccccc21; Bip(4'-COOH) = N[C@@H](Cc1ccc(-c2ccc(C(=O)O)cc2)cc1)C(=O)O; Bip(4'-NHAc) = CC(=O)Nc1ccc(-c2ccc(C[C@H](N)C(=O)O)cc2)cc1; dArg(ω-Bn) = N=C(NCCC[C@@H](N)C(=O)O)NCc1ccccc1; Ala(morpholin-4-yl) = N[C@@H](CN1CCOCC1)C(=O)O; Benzoyl(3-OCH2COOH) = O=C(O)COc1cccc(C(=O)*)c1; Phe(3-CONH2) = NC(=O)c1cccc(C[C@H](N)C(=O)O)c1; Bip = N[C@@H](Cc1ccc(-c2ccccc2)cc1)C(=O)O; 2Pal = N[C@@H](Cc1ccccn1)C(=O)O; 2Thi = N[C@@H](Cc1cccs1)C(=O)O; Cha = N[C@@H](CC1CCCCC1)C(=O)O; Chg = N[C@H](C(=O)O)C1CCCCC1; Tle = CC(C)(C)[C@H](N)C(=O)O; Sar = CNCC(=O)O

Target: TNFα (Homo sapiens, UniProt P01375)
Sequence (P01375 77-233 limits assumed): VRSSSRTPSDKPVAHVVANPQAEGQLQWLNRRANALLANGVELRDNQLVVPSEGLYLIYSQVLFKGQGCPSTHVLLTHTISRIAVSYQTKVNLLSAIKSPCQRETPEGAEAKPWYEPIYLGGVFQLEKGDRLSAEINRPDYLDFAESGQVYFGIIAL
Experiment: TNF-Induced HEK-Blue Assay
Format: cell-based
[1] = HEK-Blue-CD40L cells, NF-kB-driven secreted alkaline phosphatase reporter, TNFα 0.5 ng/ml, 18 h, read-out: TNF induced HEK-Blue assay IC50 value

Structure (SMILES) | IC50 [1] | IC50
CC(=O)Nc1ccc(-c2ccc(C[C@@H]3NC(=O)[C@H](Cc4ccc(-c5ccccc5)cc4)NC(=O)[C@H](CN4CCOCC4)NC(=O)CSC[C@@H](C(=O)NCC(N)=O)NC(=O)[C@H](CC(C)C)NC(=O)[C@H](Cc4cccc(C(N)=O)c4)NC(=O)[C@H](C4CCCCC4)NC(=O)[C@@H]4CCCN4C(=O)[C@H](C(C)C)NC(=O)[C@@H](CCCNC(=N)N)NC(=O)[C@H](CC(=O)O)NC(=O)[C@H](Cc4ccc(O)cc4)NC(=O)CN(C)C3=O)cc2)cc1 [Example 460] ({CH2CO}-[Ala(morpholin-4-yl)][Bip][Bip(4'-NHAc)][Sar]YD[dR]VP[Chg][Phe(3-CONH2)]LCG-NH2; thioether N-13) | – | < 50 nM
CC(C)C[C@@H]1NC(=O)[C@H](CCCNC(=N)N)NC(=O)[C@H](C(C)C)NC(=O)[C@@H]2CCCN2C(=O)[C@H](C(C)C)NC(=O)[C@@H](CCCNC(=N)NCc2cccc(CO)c2)NC(=O)[C@H](CC(=O)O)NC(=O)[C@@H]2CCCN2C(=O)CN(C)C(=O)[C@H](Cc2ccc(-c3ccc(NC(=O)c4nn(CC(=O)O)c5ccccc45)cc3)cc2)NC(=O)[C@H](Cc2ccc(-c3ccccc3)cc2)NC(=O)[C@H](CN2CCOCC2)NC(=O)CSC[C@@H](C(=O)NCC(N)=O)NC1=O [Example 425] ({CH2CO}-[Ala(morpholin-4-yl)][Bip][Bip(4'-NH)](Indazole3carbonyl(1-CH2COOH))[Sar]PD[dArg(ω-Bn(3-CH2OH))]VPVRLCG-NH2; thioether N-13) | – | < 50 nM
CC(=O)Nc1ccc(-c2ccc(C[C@@H]3NC(=O)[C@H](Cc4ccc(-c5ccccc5)cc4)NC(=O)[C@H](CN4CCOCC4)NC(=O)CSC[C@@H](C(=O)NCC(N)=O)NC(=O)[C@H](CC(C)C)NC(=O)[C@H](CCCNC(=N)N)NC(=O)[C@H](C(C)C)NC(=O)[C@@H]4CCCN4C(=O)[C@H](C(C)C)NC(=O)[C@H](CCCNC(=N)N)NC(=O)[C@H](CC(=O)O)NC(=O)[C@@H]4CCCN4C(=O)CN(C)C3=O)cc2)cc1 [Example 126] ({CH2CO}-[Ala(morpholin-4-yl)][Bip][Bip(4'-NHAc)][Sar]PDRVPVRLCG-NH2; thioether N-13) | 50 to 200 nM | –
CC(C)C[C@@H]1NC(=O)[C@H](Cc2cccs2)NC(=O)[C@H](C(C)C)NC(=O)[C@@H]2CCCN2C(=O)[C@H](C(C)C)NC(=O)[C@@H](CCCNC(=N)NCc2cccc(CNC(=N)N)c2)NC(=O)[C@H](CC(=O)O)NC(=O)[C@H](Cc2ccccn2)NC(=O)CN(C)C(=O)[C@H](Cc2ccc(-c3ccc(NC(=O)c4nn(CC(=O)O)c5ccccc45)cc3)cc2)NC(=O)[C@H](Cc2ccc(-c3ccccc3)cc2)NC(=O)[C@H](CN2CCOCC2)NC(=O)CSC[C@@H](C(=O)NCC(N)=O)NC1=O [Example 623] ({CH2CO}-[Ala(morpholin-4-yl)][Bip][Bip(4'-NH)](Indazole3carbonyl(1-CH2COOH))[Sar][2Pal]D[dArg(Nω-CH2C6H4-3-CH2Gua)]VPV[2Thi]LCG-NH2; thioether N-13) | – | < 50 nM
CC[C@H](C)[C@@H]1NC(=O)[C@@H](CCCNC(=N)N)NC(=O)[C@H](CC(=O)O)NC(=O)[C@H](Cc2ccc(O)cc2)NC(=O)CN(C)C(=O)[C@H](Cc2ccc(-c3ccc(NC(C)=O)cc3)cc2)NC(=O)[C@H](Cc2ccc(-c3ccccc3)cc2)NC(=O)[C@H](C(C)(C)C)NC(=O)CSC[C@@H](C(=O)NCC(N)=O)NC(=O)[C@H](CC(C)C)NC(=O)[C@H](Cc2cccs2)NC(=O)[C@H](C(C)C)NC(=O)[C@@H]2CCCN2C1=O [Example 260] ({CH2CO}-[Tle][Bip][Bip(4'-NHAc)][Sar]YD[dR]IPV[2Thi]LCG-NH2; thioether N-13) | < 50 nM | –

Continued, in another order:

IC50 [1] | Structure (SMILES) | IC50
50 to 200 nM | CC(C)C[C@@H]1NC(=O)[C@H](Cc2ccc(O)cc2)NC(=O)[C@H](C(C)C)NC(=O)[C@@H]2CCCN2C(=O)[C@H](C(C)C)NC(=O)[C@@H](CCCNC(=N)NCc2ccccc2)NC(=O)[C@H](CC(=O)O)NC(=O)[C@@H]2CCCN2C(=O)CN(C)C(=O)[C@H](Cc2ccc(-c3ccc(NC(=O)c4cccc(CC(=O)O)c4)cc3)cc2)NC(=O)[C@H](Cc2ccc(-c3ccc(C(=O)O)cc3)cc2)NC(=O)[C@H](CC2CCCCC2)NC(=O)CSC[C@@H](C(=O)NCC(N)=O)NC1=O [Example 583] ({CH2CO}-[Cha][Bip(4'-COOH)][Bip(4'-NHCO-C6H4-3-CH2COOH)][Sar]PD[dArg(ω-Bn)]VPVYLCG-NH2; thioether N-13) | –
200 to 2000 nM | CC(C)C[C@@H]1NC(=O)[C@H](CCCNC(=N)N)NC(=O)[C@H](C(C)C)NC(=O)[C@@H]2CCCN2C(=O)[C@H](C(C)C)NC(=O)[C@@H](CCCNC(=N)NC[C@H](O)CO)NC(=O)[C@H](CC(=O)O)NC(=O)[C@@H]2CCCN2C(=O)CN(C)C(=O)[C@H](Cc2ccc(-c3ccc(NC(=O)c4cccc(OCC(=O)O)c4)cc3)cc2)NC(=O)[C@H](Cc2ccc(-c3ccccc3)cc2)NC(=O)[C@H](CN2CCOCC2)NC(=O)CSC[C@@H](C(=O)NCC(N)=O)NC1=O [Example 538] ({CH2CO}-[Ala(morpholin-4-yl)][Bip][Bip(4'-NH)](Benzoyl(3-OCH2COOH))[Sar]PD[dArg(ω-(2S)-2,3-diOHpropyl)]VPVRLCG-NH2; thioether N-13) | –
